{
  "source": "patent US9995734B2",
  "about": "“Human T cell line assay for evaluating the immunologic identity of glatiramer acetate preparations” (Mylan Inc., priority 2013, dated 2018)",
  "format_in_all_cases": "cell-based, human",
  "key": {"Donor 3 COP T-Cell Lines": {"system": "Donor 3 COP T-Cell Lines", "test": "ATP proliferation assay (CellTiter Glo), Donor 3 COP T-cell lines, incl. reactivity to non-canonical GA peptides", "details": "for Non-Canonical Peptide Non-Reactivity: proliferation <2 times no antigen control"}, "Donor 3 GMA T-Cell Lines": {"system": "Donor 3 GMA T-Cell Lines", "test": "ATP proliferation assay (CellTiter Glo), Donor 3 GMA T-cell lines, incl. reactivity to non-canonical GA peptides", "details": "for Non-Canonical Peptide Non-Reactivity: proliferation <2 times no antigen control"}, "Donor 4 COP T-Cell Lines": {"system": "Donor 4 COP T-Cell Lines", "test": "ATP proliferation assay (CellTiter Glo), Donor 4 COP T-cell lines, incl. reactivity to non-canonical GA peptides", "details": "205-1H11; proliferation <2 times no antigen control"}},
  "data": [
    {"substance": "poly (Glu-Tyr; 1:1) [GT 11]", "values": [
      {"measurement": "Non-Canonical Peptide Non-Reactivity", "setting": "Donor 3 COP T-Cell Lines; 165-B6C", "result": "GT 11"},
      {"measurement": "Non-Canonical Peptide Non-Reactivity", "setting": "Donor 3 COP T-Cell Lines; 165-B10C", "result": "GT 11"},
      {"measurement": "Non-Canonical Peptide Non-Reactivity", "setting": "Donor 3 COP T-Cell Lines; 165-C4C", "result": "GT 11"},
      {"measurement": "Non-Canonical Peptide Non-Reactivity", "setting": "Donor 3 COP T-Cell Lines; 165-C7C", "result": "GT 11"},
      {"measurement": "Non-Canonical Peptide Non-Reactivity", "setting": "Donor 3 COP T-Cell Lines; 165-D2C", "result": "GT 11"},
      {"measurement": "Non-Canonical Peptide Non-Reactivity", "setting": "Donor 3 COP T-Cell Lines; 165-D3C", "result": "GT 11"},
      {"measurement": "Non-Canonical Peptide Non-Reactivity", "setting": "Donor 3 COP T-Cell Lines; 165-F3C", "result": "GT 11"},
      {"measurement": "Non-Canonical Peptide Non-Reactivity", "setting": "Donor 3 COP T-Cell Lines; 165-F6C", "result": "GT 11"},
      {"measurement": "Non-Canonical Peptide Non-Reactivity", "setting": "Donor 3 COP T-Cell Lines; 165-U3C (so in the source)", "result": "GT 11"},
      {"measurement": "Proliferation (luminescent ATP assay), Mean", "setting": "Donor 3 COP T-Cell Lines; T-cell line 165-C4C, 1 μg/mL antigen, Day 66 of culture, 0 μg/mL 1881", "result": 2664},
      {"measurement": "Proliferation (luminescent ATP assay), Mean", "setting": "Donor 3 COP T-Cell Lines; T-cell line 165-C4C, 3 μg/mL antigen, Day 66 of culture, 0 μg/mL 1881", "result": 2804},
      {"measurement": "Proliferation (luminescent ATP assay), Mean", "setting": "Donor 3 COP T-Cell Lines; T-cell line 165-C4C, 10 μg/mL antigen, Day 66 of culture, 0 μg/mL 1881", "result": 2311},
      {"measurement": "Proliferation (luminescent ATP assay), Mean", "setting": "Donor 3 COP T-Cell Lines; T-cell line 165-C7C, 1.25 μg/mL antigen, autologous B-LCL", "result": 346, "unit": "RLU"},
      {"measurement": "Proliferation (luminescent ATP assay), Mean", "setting": "Donor 3 COP T-Cell Lines; T-cell line 165-C7C, 2.5 μg/mL antigen, autologous B-LCL", "result": 265, "unit": "RLU"},
      {"measurement": "Proliferation (luminescent ATP assay), Mean", "setting": "Donor 3 COP T-Cell Lines; T-cell line 165-C7C, 5 μg/mL antigen, autologous B-LCL", "result": 255, "unit": "RLU"},
      {"measurement": "Proliferation (luminescent ATP assay), Mean", "setting": "Donor 3 COP T-Cell Lines; T-cell line 165-C7C, 10 μg/mL antigen, autologous B-LCL", "result": 234, "unit": "RLU"},
      {"measurement": "Proliferation (luminescent ATP assay), Mean", "setting": "Donor 3 COP T-Cell Lines; T-cell line 165-F3C, 1 μg/mL antigen, Day 77 of culture, 0 μg/mL 1563", "result": 2108},
      {"measurement": "Proliferation (luminescent ATP assay), Mean", "setting": "Donor 3 COP T-Cell Lines; T-cell line 165-F3C, 3 μg/mL antigen, Day 77 of culture, 0 μg/mL 1563", "result": 2152},
      {"measurement": "Proliferation (luminescent ATP assay), Mean", "setting": "Donor 3 COP T-Cell Lines; T-cell line 165-F3C, 10 μg/mL antigen, Day 77 of culture, 0 μg/mL 1563", "result": 1652},
      {"measurement": "Proliferation (luminescent ATP assay), Mean", "setting": "Donor 3 COP T-Cell Lines; T-cell line 165-F6C, 1.25 μg/mL antigen, Day 76 of culture, No Antigen value 517", "result": 406},
      {"measurement": "Proliferation (luminescent ATP assay), Mean", "setting": "Donor 3 COP T-Cell Lines; T-cell line 165-F6C, 2.5 μg/mL antigen, Day 76 of culture, No Antigen value 517", "result": 426},
      {"measurement": "Proliferation (luminescent ATP assay), Mean", "setting": "Donor 3 COP T-Cell Lines; T-cell line 165-F6C, 5 μg/mL antigen, Day 76 of culture, No Antigen value 517", "result": 388},
      {"measurement": "Proliferation (luminescent ATP assay), Mean", "setting": "Donor 3 COP T-Cell Lines; T-cell line 165-F6C, 10 μg/mL antigen, Day 76 of culture, No Antigen value 517", "result": 303},
      {"measurement": "Non-Canonical Peptide Non-Reactivity", "setting": "Donor 3 GMA T-Cell Lines; 165-B5G", "result": "GT 11"},
      {"measurement": "Non-Canonical Peptide Non-Reactivity", "setting": "Donor 3 GMA T-Cell Lines; 165-C4G", "result": "GT 11"},
      {"measurement": "Non-Canonical Peptide Non-Reactivity", "setting": "Donor 3 GMA T-Cell Lines; 165-C5G", "result": "GT 11"},
      {"measurement": "Non-Canonical Peptide Non-Reactivity", "setting": "Donor 3 GMA T-Cell Lines; 165-E7G", "result": "GT 11"},
      {"measurement": "Non-Canonical Peptide Non-Reactivity", "setting": "Donor 3 GMA T-Cell Lines; 165-E9G", "result": "GT 11"},
      {"measurement": "Non-Canonical Peptide Non-Reactivity", "setting": "Donor 3 GMA T-Cell Lines; 165-F5G", "result": "GT 11"},
      {"measurement": "Non-Canonical Peptide Non-Reactivity", "setting": "Donor 3 GMA T-Cell Lines; 165-F8G", "result": "GT 11"},
      {"measurement": "Non-Canonical Peptide Non-Reactivity", "setting": "Donor 3 GMA T-Cell Lines; 165-F10G", "result": "GT 11"},
      {"measurement": "Non-Canonical Peptide Non-Reactivity", "setting": "Donor 3 GMA T-Cell Lines; 165-H11G", "result": "GT 11"},
      {"measurement": "Proliferation (luminescent ATP assay), Mean", "setting": "Donor 3 GMA T-Cell Lines; T-cell line 165-B5G, 1.25 μg/mL antigen, Day 55 of culturing, No Antigen Value 846", "result": 2167, "unit": "RLU"},
      {"measurement": "Proliferation (luminescent ATP assay), Mean", "setting": "Donor 3 GMA T-Cell Lines; T-cell line 165-B5G, 2.5 μg/mL antigen, Day 55 of culturing, No Antigen Value 846", "result": 1957, "unit": "RLU"},
      {"measurement": "Proliferation (luminescent ATP assay), Mean", "setting": "Donor 3 GMA T-Cell Lines; T-cell line 165-B5G, 5 μg/mL antigen, Day 55 of culturing, No Antigen Value 846", "result": 1353, "unit": "RLU"},
      {"measurement": "Proliferation (luminescent ATP assay), Mean", "setting": "Donor 3 GMA T-Cell Lines; T-cell line 165-B5G, 10 μg/mL antigen, Day 55 of culturing, No Antigen Value 846", "result": 1191, "unit": "RLU"},
      {"measurement": "Proliferation (luminescent ATP assay), Mean", "setting": "Donor 3 GMA T-Cell Lines; T-cell line 165-C5G, 1.25 μg/mL antigen, autologous B-LCL", "result": 523, "unit": "RLU"},
      {"measurement": "Proliferation (luminescent ATP assay), Mean", "setting": "Donor 3 GMA T-Cell Lines; T-cell line 165-C5G, 2.5 μg/mL antigen, autologous B-LCL", "result": 620, "unit": "RLU"},
      {"measurement": "Proliferation (luminescent ATP assay), Mean", "setting": "Donor 3 GMA T-Cell Lines; T-cell line 165-C5G, 5 μg/mL antigen, autologous B-LCL", "result": 428, "unit": "RLU"},
      {"measurement": "Proliferation (luminescent ATP assay), Mean", "setting": "Donor 3 GMA T-Cell Lines; T-cell line 165-C5G, 10 μg/mL antigen, autologous B-LCL", "result": 471, "unit": "RLU"},
      {"measurement": "Proliferation (luminescent ATP assay), Mean", "setting": "Donor 3 GMA T-Cell Lines; T-cell line 165-E7G, 1.25 μg/mL antigen, autologous B-LCL, Day 55", "result": 2821, "unit": "RLU"},
      {"measurement": "Proliferation (luminescent ATP assay), Mean", "setting": "Donor 3 GMA T-Cell Lines; T-cell line 165-E7G, 2.5 μg/mL antigen, autologous B-LCL, Day 55", "result": 2914, "unit": "RLU"},
      {"measurement": "Proliferation (luminescent ATP assay), Mean", "setting": "Donor 3 GMA T-Cell Lines; T-cell line 165-E7G, 5 μg/mL antigen, autologous B-LCL, Day 55", "result": 2332, "unit": "RLU"},
      {"measurement": "Proliferation (luminescent ATP assay), Mean", "setting": "Donor 3 GMA T-Cell Lines; T-cell line 165-E7G, 10 μg/mL antigen, autologous B-LCL, Day 55", "result": 1848, "unit": "RLU"},
      {"measurement": "Proliferation (luminescent ATP assay), Mean", "setting": "Donor 3 GMA T-Cell Lines; T-cell line 165-E9G, 1.25 μg/mL antigen, autologous B-LCL", "result": 110, "unit": "RLU"},
      {"measurement": "Proliferation (luminescent ATP assay), Mean", "setting": "Donor 3 GMA T-Cell Lines; T-cell line 165-E9G, 2.5 μg/mL antigen, autologous B-LCL", "result": 119, "unit": "RLU"},
      {"measurement": "Proliferation (luminescent ATP assay), Mean", "setting": "Donor 3 GMA T-Cell Lines; T-cell line 165-E9G, 5 μg/mL antigen, autologous B-LCL", "result": 103, "unit": "RLU"},
      {"measurement": "Proliferation (luminescent ATP assay), Mean", "setting": "Donor 3 GMA T-Cell Lines; T-cell line 165-E9G, 10 μg/mL antigen, autologous B-LCL", "result": 96, "unit": "RLU"},
      {"measurement": "Proliferation (luminescent ATP assay), Mean", "setting": "Donor 3 GMA T-Cell Lines; T-cell line 165-F5G, 1.25 μg/mL antigen, autologous B-LCL", "result": 160, "unit": "RLU"},
      {"measurement": "Proliferation (luminescent ATP assay), Mean", "setting": "Donor 3 GMA T-Cell Lines; T-cell line 165-F5G, 2.5 μg/mL antigen, autologous B-LCL", "result": 124, "unit": "RLU"},
      {"measurement": "Proliferation (luminescent ATP assay), Mean", "setting": "Donor 3 GMA T-Cell Lines; T-cell line 165-F5G, 5 μg/mL antigen, autologous B-LCL", "result": 124, "unit": "RLU"},
      {"measurement": "Proliferation (luminescent ATP assay), Mean", "setting": "Donor 3 GMA T-Cell Lines; T-cell line 165-F5G, 10 μg/mL antigen, autologous B-LCL", "result": 158, "unit": "RLU"},
      {"measurement": "Proliferation (luminescent ATP assay), Mean", "setting": "Donor 3 GMA T-Cell Lines; T-cell line 165-F10G, 1.25 μg/mL antigen, autologous B-LCL", "result": 1388, "unit": "RLU"},
      {"measurement": "Proliferation (luminescent ATP assay), Mean", "setting": "Donor 3 GMA T-Cell Lines; T-cell line 165-F10G, 2.5 μg/mL antigen, autologous B-LCL", "result": 1506, "unit": "RLU"},
      {"measurement": "Proliferation (luminescent ATP assay), Mean", "setting": "Donor 3 GMA T-Cell Lines; T-cell line 165-F10G, 5 μg/mL antigen, autologous B-LCL", "result": 1598, "unit": "RLU"},
      {"measurement": "Proliferation (luminescent ATP assay), Mean", "setting": "Donor 3 GMA T-Cell Lines; T-cell line 165-F10G, 10 μg/mL antigen, autologous B-LCL", "result": 1294, "unit": "RLU"},
      {"measurement": "Proliferation (luminescent ATP assay), Mean", "setting": "Donor 3 GMA T-Cell Lines; T-cell line 165-H11G, 1.25 μg/mL antigen, autologous B-LCL", "result": 17, "unit": "RLU"},
      {"measurement": "Proliferation (luminescent ATP assay), Mean", "setting": "Donor 3 GMA T-Cell Lines; T-cell line 165-H11G, 2.5 μg/mL antigen, autologous B-LCL", "result": 354, "unit": "RLU"},
      {"measurement": "Proliferation (luminescent ATP assay), Mean", "setting": "Donor 3 GMA T-Cell Lines; T-cell line 165-H11G, 5 μg/mL antigen, autologous B-LCL", "result": 352, "unit": "RLU"},
      {"measurement": "Proliferation (luminescent ATP assay), Mean", "setting": "Donor 3 GMA T-Cell Lines; T-cell line 165-H11G, 10 μg/mL antigen, autologous B-LCL", "result": 308, "unit": "RLU"},
      {"measurement": "Non-Canonical Peptide Non-Reactivity", "setting": "Donor 4 COP T-Cell Lines", "result": "GT 11"}
    ]}
  ]
}
